Data set [1] has as its system Lys-GFP-ER-HoxA9 cells. Nature of the data set: Myeloid differentiation assay in Lys-GFP-ER-HoxA9 cells (GFP / CD11b flow cytometry). The conditions noted are these: for myeloid differentiation: ER-HoxA9 cellular differentiation assay, in words; for effect of uridine supplementation of the media on differentiation: uridine rescue, also U937 and THP1.
Method: (See Example 20 for assay details.) After four days of compound treatment, cells were assessed by high-throughput flow cytometry for viability based on forward and side-scatter properties, and for differentiation as determined by the endogenous expression of GFP and cell-surface expression of CD11b (APC fluorescence, FIG. 2C).
The cell line used was ERHoxA9 myeloblast cell line. […] Removal of beta-estradiol from the culture media inactivates ERHoxA9 and the cells are freed from the HoxA9-differentiation arrest and undergo normal myeloid differentiation.
Cells were cultured in RPMI (Cellgro) supplemented with 10% fetal bovine serum (Serum Source Int'l), penicillin/streptomycin, L-glutamine (Omega Scientific), 5% conditioned media containing stem cell factor (SCF), and 0.5 μM beta-estradiol (Sigma). On day 1, 25 μL of complete media supplemented with 0.04% Pluronic F-68 (GIBCO) was added to a sterile 384 well culture plate (Greiner) followed by the addition of 0.2 μL of test compound in DMSO (Sigma). Wells contained complete media supplemented with Pluronic F-68 and the 5 μM of the estrogen receptor antagonist fulvestrant that served as a positive control for differentiation. 25 μL of cells (1.2×10^5/ml) in complete media were added and the plates were incubated (37° C./5% CO2) for 4 days. Final concentrations of components were 3,000 cells/well, 4 μM test compound, and 0.4% DMSO.
On day 5, plates were harvested as follows: 5 μL of an antibody/bead solution consisting of a 1:100 dilution of APC-conjugated anti-mouse CD11b (eBioscience, cloneM1/70) and a 1/500 dilution of polystyrene beads (Spherotech) were added to wells and the plates were incubated for 20 min prior to sampling using the HyperCyt® high throughput flow cytometry platform.
Cells were cultured in RPMI (Cellgro) supplemented with 10% fetal bovine serum (Serum Source Int'l), penicillin/streptomycin, L-glutamine (Omega Scientific), 5% conditioned media containing stem cell factor (SCF), and 0.5 μM beta-estradiol (Sigma, E2758). On day 1, 25 μL of complete media supplemented with 0.04% Pluronic F-68 (GIBCO) was added to a sterile 384 well culture plate (Greiner) followed by the addition of 0.2 μL of compound dilution arrays in DMSO. Some wells contained complete media supplemented with Pluronic F-68 and 5 μM of the estrogen receptor antagonist fulvestrant that served as a positive control for differentiation. 25 μL of cells (1.2×10^5/ml) in complete media were added and the plates were incubated (37° C./5% CO2) for 4 days. Final concentrations of components were 3,000 cells/well and 0.4% DMSO.
For data set [2], the target named is recombinant human DHODH protein (Homo sapiens, UniProt Q02127). Nature of the data set: In vitro DHODH enzyme inhibition assay. It is filed as biochemical. The conditions noted are these: in words.
Sequence of recombinant human DHODH protein (Q02127 whole entry): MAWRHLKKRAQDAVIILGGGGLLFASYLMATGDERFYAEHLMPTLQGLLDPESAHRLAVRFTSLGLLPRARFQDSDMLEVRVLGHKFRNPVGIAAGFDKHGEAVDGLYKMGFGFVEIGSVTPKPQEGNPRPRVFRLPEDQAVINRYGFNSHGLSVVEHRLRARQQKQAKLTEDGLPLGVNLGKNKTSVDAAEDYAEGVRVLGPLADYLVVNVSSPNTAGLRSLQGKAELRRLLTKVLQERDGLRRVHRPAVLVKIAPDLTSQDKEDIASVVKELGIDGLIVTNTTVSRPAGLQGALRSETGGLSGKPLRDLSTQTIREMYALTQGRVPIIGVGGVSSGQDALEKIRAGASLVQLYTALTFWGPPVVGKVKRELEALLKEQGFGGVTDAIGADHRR
The subject of data set [3] is acute promyelocytic leukemia (APL). The conditions noted are these: ATRA incorporated into treatment regimens; from 20%; cited from earlier work.
In data set [4] the test system is THP1 cells. In words: Differentiation (CD11b upregulation) in THP1 human leukemia cell line. It is filed as cell-based. The procedure:
(§1) The THP-1 and U937 human leukemic cell lines were used within the same procedure as in the primary assay, except using human leukemic cell lines. These are factor-independent cell lines and estrogen-independent cell lines, such that cells were grown simply in RPMI supplemented with 10% fetal bovine serum.

For data set [5], the system named is U937 cells. Nature of the data set: Differentiation (CD11b upregulation) in U937 human leukemia cell line. It is filed as cell-based. As for the experimental part: as §1
Data set [6] concerns Lys-GFP-ER-HoxA9 cells. In words: Cellular metabolite analysis after DHODH inhibition in vitro. The format is cell-based, murine. Conditions: 48 hours treatment. An excerpt:
DHODH catalyzes the conversion of dihydroorotate (DHO) to orotate in the endogenous synthesis of uridine monophosphate (UMP, FIG. 5A).

A short description of data set [7]: Solubility. It is filed as physicochemical. As for the experimental part: Solubility was determined in phosphate buffered saline (PBS) pH 7.4 with 1% DMSO. Each compound was prepared in duplicate at 100 μM in both 100% DMSO and PBS with 1% DMSO. Compounds were allowed to equilibrate at room temperature with a 250 rpm orbital shake for 24 hours. After equilibration, samples were analyzed by UPLC-MS (Waters, Milford, Mass.) with compounds detected by SIR detection on a single quadrupole mass spectrometer. The DMSO samples were used to create a two point calibration curve to which the response in PBS was fit.

Data set [8] can be described thus: Bioavailability. The conditions noted are these: in vivo.
Data set [9] has as its system protein O-GlcNAc modification. In words: Immunoblot of protein O-GlcNAc modification. It is filed as cell-based. An excerpt:
FIG. 5E is an immunoblot.
DHODH and OMPD inhibitors lead to depletion of uridine and to myeloid differentiation in model systems. […] (See, Example 24.) Without intending to be bound by theory, part of the differentiation effect may be due to depletion of UDP-GlcNAc leading to decreased O-linked N-acetylglycosylation (GlcNAc) post-translational modification of proteins.
(In general: In western blotting, separated proteins are transferred to a membrane and probed.)

Data set [10] concerns HoxA9-Meis1 leukemia cells. In words: Syngeneic HoxA9 and Meis1-driven model of AML. An excerpt:
To address the anti-leukemic and differentiation effect of DHODH inhibition in vivo, we chose a syngeneic retroviral transduction model of AML. In this model, bone marrow cells are transduced with MSCV-based retrovirus expressing both HoxA9 and Meis1 oncoproteins and introduced intravenously into recipient mice that have been pre-conditioned with a sub-lethal dose of radiation. Mice that developed acute myeloid leukemia were sacrificed and bone marrow cells were expanded in vitro in media supplemented with SCF and IL-3. To permit easy tracking in vivo, leukemic cells were transduced with lentivirus expressing the Venus fluorescent protein, and double-sorted by fluorescence activated cell sorting (FACS) to purity. These Venus-expressing cultured leukemic cells were re-transplanted into pre-conditioned secondary recipient mice, and these secondary recipients were used in all described experiments. […] Mice were treated at six dosages: (1) vehicle Q2D, (2) BRQ 5 mg/kg Q2D, (3) BRQ 10 mg/kg Q2D, (4) BRQ 25 mg/kg Q2D, (5) vehicle days 1+4 of a 7-day schedule or (6) BRQ 25 mg/kg days 1+4 of a 7-day schedule. Scheduled interim euthanasia and leukemia analyses were performed at two planned time points (FIG. 6A).

Consider `O=C(CCNC(=O)c1ccc(Cl)cc1)N[C@@H]1CCCc2ccccc21` [(R)-C07], for which, in data set [1], the myeloid differentiation entry is reported as “triggered myeloid differentiation” and the “effect of uridine supplementation of the media on differentiation” value (shortened to “effect … on differentiation”) is “abrogated the differentiation effect”. Further, the DHODH enzyme inhibition entry in data set [2] was “inhibitors of DHODH”.

For `CC1=C(/C=C/C(C)=C/C=C/C(C)=C/C(=O)O)C(C)(C)CCC1` [ATRA, all-trans retinoic acid], the “overall survival of patients with APL” value in data set [3] was 75%.

As for `O=C(O)c1cccnc1Nc1ccc(Cl)cc1` [Compound C03], in data set [1], the myeloid differentiation entry was “triggered myeloid differentiation” and the “effect … on differentiation” value was “abrogated the differentiation effect”. Further, the “differentiation (upregulation of CD11b expression)” value in [4] is on record as “promoted differentiation”. Moreover, the “differentiation (upregulation of CD11b expression)” value in [5] is “promoted differentiation”. In data set [2], the DHODH enzyme inhibition entry was “inhibitors of DHODH”.

Regarding `O=C(CCNC(=O)c1ccc(OC(F)(F)F)cc1)N[C@@H]1CCCc2ccccc21` [ML390], in [6], the accumulation of dihydroorotate was > 500 fold; the “uridine and downstream metabolites” value is “depletion of uridine and other downstream metabolites”. For the same compound, the solubility result in data set [7] is “low”. Besides, in [1], the “effect … on differentiation” value is listed as “abrogated the differentiation effect”. Besides, the bioavailability result in data set [8] is given as “low”. For the same compound, the “protein O-GlcNAc modification” value in data set [9] is given as “global reduction of protein O-GlcNAc modification”. Besides, the DHODH enzyme inhibition result in data set [2] was “DHODH was confirmed as the target”.

As for `Cc1c(-c2ccc(-c3ccccc3F)cc2)nc2ccc(F)cc2c1C(=O)O` [brequinar sodium], the myeloid differentiation entry in data set [1] is “active”. Further, in [2], the DHODH enzyme inhibition entry is recorded as “active”.

Consider `Nc1ccn([C@@H]2O[C@H](CO)[C@@H](O)[C@@H]2O)c(=O)n1` [cytarabine], for which the myeloid differentiation entry in data set [1] was “cytotoxicity without differentiation”.

On to `COc1cccc2c1C(=O)c1c(O)c3c(c(O)c1C2=O)C[C@@](O)(C(C)=O)C[C@@H]3O[C@H]1C[C@H](N)[C@H](O)[C@H](C)O1` [daunorubicin], for which the myeloid differentiation result in [1] is recorded as “cytotoxicity without differentiation”.

`Cc1oncc1C(=O)Nc1ccc(C(F)(F)F)cc1` [leflunomide, 5-methyl-N-[4-(trifluoromethyl)phenyl]-isoxazole-4-carboxamide]: in data set [10] (25 mg/kg daily), the leukemic burden result is on record as “did not result in a reduction in leukemic burden”. For the same compound, the “expression of the differentiation marker CD11b” value in data set [10] (25 mg/kg daily (highest dosage)) is reported as “very mild increase”. Also, the myeloid differentiation entry in [1] was “active”.

For `CN(Cc1cnc2nc(N)nc(N)c2n1)c1ccc(C(=O)N[C@@H](CCC(=O)O)C(=O)O)cc1` [methotrexate], the myeloid differentiation entry in data set [1] is reported as “cytotoxicity without differentiation”.

For `NC(=O)c1[nH]nc([C@@H]2O[C@H](CO)[C@@H](O)[C@H]2O)c1O` [pyrazofurin], in data set [1], the myeloid differentiation entry is “phenocopied the differentiation effect of DHODH inhibition” and the “effect … on differentiation” value is reported as “abrogated the differentiation effect”.

For the compound `C/C(O)=C(\C#N)C(=O)Nc1ccc(C(F)(F)F)cc1` [teriflunomide, (2Z)-2-cyano-3-hydroxy-N-[4-(trifluoromethyl)phenyl]but-2-enamide], in data set [1], the myeloid differentiation entry is listed as “active”. In addition, in data set [2], the DHODH enzyme inhibition result is on record as “active”.

These data come from US11096934B2, “Compounds and methods useful for treating or preventing hematological cancers” (THE BROAD INSTITUTE, INC., priority 2015, dated 2021).
